Assay results taken from patent US10294202B2, “Pyrrolidinones as herbicides” (FMC Corporation, priority 2013, dated 2019).
Several values for one entry are separate records, joined by “and”; a condition that tells them apart may be missing. Equal entries are not always repeated.

Assays:
rice = assay: Test B flooded paddy test; assay type: in vivo, Oryza sativa; conditions: 1000 g ai/ha, Flood; scale of 0 to 100 where 0 is no effect and 100 is complete control
In short: (§1)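 In-water application to pots flooded 3 cm deep, plants at 2-leaf stage. Held in greenhouse 13–15 days at constant flood depth. Scored 0–100 by eye against controls.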

giant foxtail = assay: Test A pre-/postemergence herbicide test; assay type: in vivo, Setaria faberii; conditions: 1000 g ai/ha
In short: (§2)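 Directed soil spray to seeded pots (preemergence) or spray onto one- to two-leaf seedlings 2–10 cm tall (postemergence); loam/sand substrate throughout. Evaluated visually after about 10 days against untreated plants, 0 = no effect, 100 = complete control.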

sedge, umbrella = assay: Test B flooded paddy test; assay type: in vivo, Cyperus difformis; conditions: 1000 g ai/ha, Flood; scale of 0 to 100 where 0 is no effect and 100 is complete control
In short: as §1

barnyardgrass [1] = assay: Test B flooded paddy test; assay type: in vivo, Echinochloa crus-galli; conditions: 1000 g ai/ha, Flood; scale of 0 to 100 where 0 is no effect and 100 is complete control
In short: as §1

barnyardgrass [2] = assay: Test F flood (paddy) test; assay type: in vivo, Echinochloa crus-galli; conditions: 21 d, scale 0-100
Description: (§3) Three plastic pots (ca. 16-cm diameter) per rate were partially filled with sterilized Tama silt loam soil comprising a 35:50:15 ratio of sand, silt and clay and 2.6% organic matter. Separate plantings for each of the three pots were as follows. Seeds from the U.S. of monochoria (Monochoria vaginalis), sedge, umbrella (small-flower umbrella sedge, Cyperus difformis), bulrush, […] bulrush, Scirpus juncoides), and […] (purple […] coccinea), were planted into one 16-cm pot for each rate. Seeds from the U.S. of flatsedge, rice (rice flatsedge, Cyperus iria), sprangletop, Brdd. (bearded sprangletop, Leptochloa fascicularis), one stand of 9 or 10 water seeded rice seedlings (Rice, W.S. Jap, Oryza sativa cv. 'Japonica-[…]' or Rice, W.S. Ind, 'Indica'), and two stands of 3 or 4 seedlings of rice, transplanted (transplanted rice, Oryza sativa cv. 'Japonica-[…]') were planted into one 16-cm pot for each rate. Seeds from the U.S. of barnyardgrass (Echinochloa crus-galli), […] (common […], Alisma plantago-aquatica), and watergrass, late (late watergrass, Echinochloa oryzicola) were planted into one 16-cm pot for each rate. Plantings were sequential so that crop and weed species were at the 2.0 to 2.5-leaf stage at time of treatment. Potted plants were grown in a greenhouse with day/night temperature settings of 30/27° C., and supplemental balanced lighting was provided to maintain a 16-h photoperiod. Test pots were maintained in the greenhouse until test completion. At time of treatment, test pots were flooded to 3 cm above the soil surface, treated by application of test compounds directly to the paddy water, and then maintained at that water depth for the duration of the test. Effects of treatments on rice and weeds were visually evaluated by comparison to untreated controls after 21 d. Plant response ratings, summarized in Table F, are based on a scale of 0 to 100 where 0 is no effect and 100 is complete control. A dash (-) response means no test result.

crabgrass, large = assay: Test A pre-/postemergence herbicide test; assay type: in vivo, Digitaria sanguinalis; conditions: 1000 g ai/ha
In short: as §2

sprangletop, Brdd. = assay: Test F flood (paddy) test; assay type: in vivo, Leptochloa fascicularis; conditions: 21 d, scale 0-100
Description: as §3

velvetleaf = assay: Test A pre-/postemergence herbicide test; assay type: in vivo, Abutilon theophrasti; conditions: 1000 g ai/ha
In short: as §2

rice, transplanted = assay: Test F flood (paddy) test; assay type: in vivo, Oryza sativa cv. Japonica—M202; conditions: 21 d, scale 0-100
Description: as §3

ducksalad = assay: Test B flooded paddy test; assay type: in vivo, Heteranthera limosa; conditions: 1000 g ai/ha, Flood; scale of 0 to 100 where 0 is no effect and 100 is complete control
In short: as §1

watergrass, late = assay: Test F flood (paddy) test; assay type: in vivo, Echinochloa oryzicola; conditions: 21 d, scale 0-100
Description: as §3

corn = assay: Test A pre-/postemergence herbicide test; assay type: in vivo, Zea mays; conditions: 1000 g ai/ha
In short: as §2

wheat = assay: Test A pre-/postemergence herbicide test; assay type: in vivo, Triticum aestivum; conditions: 1000 g ai/ha
In short: as §2

Rice, W.S. Ind = assay: Test F flood (paddy) test; assay type: in vivo, Oryza sativa Indica; conditions: 21 d, scale 0-100
Description: as §3

monochoria = assay: Test F flood (paddy) test; assay type: in vivo, Monochoria vaginalis; conditions: 21 d, scale 0-100
Description: as §3

pigweed = assay: Test A pre-/postemergence herbicide test; assay type: in vivo, Amaranthus retroflexus; conditions: 1000 g ai/ha
In short: as §2

barnyardgrass [3] = assay: Test A pre-/postemergence herbicide test; assay type: in vivo, Echinochloa crus-galli; conditions: 1000 g ai/ha
In short: as §2

morningglory = assay: Test A pre-/postemergence herbicide test; assay type: in vivo, Ipomoea spp.; conditions: 1000 g ai/ha
In short: as §2

[4] = test system: small-flower umbrella sedge (CYPDI); assay: Test G paddy mixture test (Colby); assay type: in vivo, Cyperus difformis; conditions: applied alone, 14 d; for CYPDI Obsd. plant response rating (scale 0 to 100): flooded
Procedure: (§4) Seeds of small-flower umbrella […], Cyperus difformis) and […], Heteranthera limosa) were sown on the soil surface in two separate quadrants of 11-cm (4-inch) tubs filled with steam pasteurized Tama soil. Simultaneously, plantings of […], Echinochloa crus-galli) and transplanted japonica rice (ORYSA, Oryza sativa) were established in separate “plug” flats. […] Herbicide application timing was targeted at the 2.0 to 2.5 leaf stage and the plants were treated with test chemicals formulated in a non-phytotoxic solvent. Treated plants and controls were maintained in a greenhouse for 14 d, after which time all species were compared to controls and visually evaluated. Plant response ratings are summarized in Tables G1 through G12, and are based on a scale of 0 to 100 where 0 is no effect and 100 is complete control. A dash (-) response means no test result. Colby's Equation was used to determine the herbicidal effects expected from the mixtures. Colby's Equation (Colby, S. R. “Calculating Synergistic and Antagonistic Responses of Herbicide Combinations,” Weeds, 15(1), pp 20-22 (1967)) calculates the expected additive effect of herbicidal mixtures and for two active ingredients is of the form: Pa+b=Pa+Pb-(PaPb/100) where • Pa+b is the percentage effect of the mixture expected from additive contribution of the individual components: • Pa is the observed percentage effect of the first active ingredient at the same use rate as in the mixture, and • Pb is the observed percentage effect of the second active ingredient at the same use rate as in the mixture. In the following Tables, rates are shown in grams of active ingredient per […]); “Obsd.” is the observed effect. “Exp.” is the expected effect calculated from Colby's Equation.

ducksalad (HETLI) = assay: Test G paddy mixture test (Colby); assay type: in vivo, Heteranthera limosa; conditions: applied alone, 14 d; for HETLI Obsd. plant response rating (scale 0 to 100): flooded
Procedure: as §4

[5] = test system: transplanted japonica rice (ORYSA); assay: Test G paddy mixture test (Colby); assay type: in vivo, Oryza sativa; conditions: applied alone, 14 d
Procedure: as §4

barnyardgrass (ECHCG) = assay: Test G paddy mixture test (Colby); assay type: in vivo, Echinochloa crus-galli; conditions: applied alone, 14 d; for ECHCG Obsd. plant response rating (scale 0 to 100): flooded
Procedure: as §4

waterhemp (AMATA) = assay: Test H preemergence mixture test (Colby); assay type: in vivo, Amaranthus rudis; conditions: Mesotrione alone 16 g a.i./ha, 21 d after treatment, scale 0 to 100
Description: (§5) Colby's Equation was used to determine the herbicidal effects expected from the mixtures. Colby's Equation (Colby, S. R. “Calculating Synergistic and Antagonistic Responses of Herbicide Combinations,” Weeds, 15(1), pp 20-22 (1967)) calculates the expected additive effect of herbicidal mixtures and for two active ingredients is of the form: Pa+b=Pa+Pb−(PaPb/100)
(§6) where • Pa+b is the percentage effect of the mixture expected from additive contribution of the individual components: • Pa is the observed percentage effect of the first active ingredient at the same use rate as in the mixture, and • Pb is the observed percentage effect of the second active ingredient at the same use rate as in the mixture. In the following Tables, rates are shown in grams of active ingredient per hectare (g a.i./ha); “Obsd.” is the observed effect. “Exp.” is the expected effect calculated from Colby's Equation.
(§7) This test evaluated the effect of mixtures of compound 80 with several commercial herbicides on four plant species. Seeds of plant species selected from corn (ZEAMD, Zea mays), soybean (GLXMA, Glycine max), waterhemp (common waterhemp, AMATA, Amaranthus rudis), and giant foxtail (SETFA, Setaria faberii) were planted into a silt loam soil and treated preemergence with test chemicals formulated in a non-phytotoxic solvent mixture which included a surfactant and applied using a volume of 281 L/ha. Each treatment was replicated three times. Treated plants and controls were maintained in a greenhouse using supplemental lighting to maintain a photoperiod of about 16 h; daytime and nighttime temperatures were about 24-30° C. and 19-21° C., respectively. Nutrients were applied using a balanced fertilizer applied through the watering system. At 21 d after treatment, all species were compared to controls and visually evaluated. Plant response ratings were calculated as the means of the three replicates, are summarized in Tables H1 through H5, and are based on a scale of 0 to 100 where 0 is no effect and 100 is complete control. A dash (-) response means no test result. The Expected (Exp.) results were calculated using Colby's Equation as described for Test G above.

corn (ZEAMD) = assay: Test H preemergence mixture test (Colby); assay type: in vivo, Zea mays; conditions: Mesotrione alone 16 g a.i./ha, 21 d after treatment, scale 0 to 100
Description: as §5, §6, §7

soybean (GLXMA) = assay: Test H preemergence mixture test (Colby); assay type: in vivo, Glycine max; conditions: Mesotrione alone 16 g a.i./ha, 21 d after treatment, scale 0 to 100
Description: as §5, §6, §7

giant foxtail (SETFA) = assay: Test H preemergence mixture test (Colby); assay type: in vivo, Setaria faberii; conditions: Mesotrione alone 16 g a.i./ha, 21 d after treatment, scale 0 to 100
Description: as §5, §6, §7

[6] = Postemergence, 0 to 100 scale (0 no effect, 100 complete control)
[7] = Preemergence, visual rating on 0 to 100 scale (0 no effect, 100 complete control), approx. 10 days

O=C1NCC(c2ccc(F)c(F)c2)C1C(=O)Nc1ccccc1Cl (racemic) [Compound 99]
Plant response rating, Rice (rice): 10
Plant response rating, Foxtail, Giant (giant foxtail; [6]): 90
Plant response rating, Foxtail, Giant (giant foxtail; [7]): 90
Plant response rating, Sedge, Umbrella (sedge, umbrella): 0
Plant response rating, Barnyardgrass (barnyardgrass [1]): 80
Plant response rating, Barnyardgrass (barnyardgrass [2]; 125 g ai/ha): 25
Plant response rating, Barnyardgrass (barnyardgrass [2]; 250 g ai/ha): 50
Plant response rating, Barnyardgrass (barnyardgrass [2]; 500 g ai/ha): 80
Plant response rating, Crabgrass, Large (crabgrass, large; [6]): 90
Plant response rating, Crabgrass, Large (crabgrass, large; [7]): 90
Plant response rating, Sprangletop, Brdd. (sprangletop, Brdd.; 125 g ai/ha): 0
Plant response rating, Sprangletop, Brdd. (sprangletop, Brdd.; 250 g ai/ha): 75
Plant response rating, Sprangletop, Brdd. (sprangletop, Brdd.; 500 g ai/ha): 85
Plant response rating, Velvetleaf (velvetleaf; [6]): 10
Plant response rating, Velvetleaf (velvetleaf; [7]): 0
Plant response rating, Rice, Transplanted (rice, transplanted; 125 g ai/ha): 0
Plant response rating, Rice, Transplanted (rice, transplanted; 250 g ai/ha): 0
Plant response rating, Rice, Transplanted (rice, transplanted; 500 g ai/ha): 0
Plant response rating, Ducksalad (ducksalad): 95
Plant response rating, Watergrass, Late (watergrass, late; 125 g ai/ha): 30
Plant response rating, Watergrass, Late (watergrass, late; 250 g ai/ha): 40
Plant response rating, Watergrass, Late (watergrass, late; 500 g ai/ha): 50
Plant response rating, Corn (corn; [6]): 20
Plant response rating, Corn (corn; [7]): 20
Plant response rating, Wheat (wheat; [6]): 20
Plant response rating, Wheat (wheat; [7]): 20
Plant response rating, Rice, W.S. Ind (Rice, W.S. Ind; 125 g ai/ha): 0
Plant response rating, Rice, W.S. Ind (Rice, W.S. Ind; 250 g ai/ha): 0
Plant response rating, Rice, W.S. Ind (Rice, W.S. Ind; 500 g ai/ha): 0
Plant response rating, Monochoria (monochoria; 125 g ai/ha): 50
Plant response rating, Monochoria (monochoria; 250 g ai/ha): 85
Plant response rating, Monochoria (monochoria; 500 g ai/ha): 95
Plant response rating, Pigweed (pigweed; [6]): 0
Plant response rating, Pigweed (pigweed; [7]): 0
Plant response rating, Barnyardgrass (barnyardgrass [3]; [6]): 90
Plant response rating, Barnyardgrass (barnyardgrass [3]; [7]): 90
Plant response rating, Morningglory (morningglory; [6]): 10
Plant response rating, Morningglory (morningglory; [7]): 0

CCN(C(=O)n1nnn(-c2ccccc2Cl)c1=O)C1CCCCC1 [Fentrazamide]
CYPDI Obsd. plant response rating (scale 0 to 100) ([4]; 100 g a.i./ha): 90 and 100
CYPDI Obsd. plant response rating (scale 0 to 100) ([4]; 200 g a.i./ha): 100
HETLI Obsd. plant response rating (scale 0 to 100) (ducksalad (HETLI); 100 g a.i./ha): 85 and 100
HETLI Obsd. plant response rating (scale 0 to 100) (ducksalad (HETLI); 200 g a.i./ha): 100
ORYSA Obsd. plant response rating (scale 0 to 100) ([5]; 100 g a.i./ha, flooded): 0
ECHCG Obsd. plant response rating (scale 0 to 100) (barnyardgrass (ECHCG); 100 g a.i./ha): 50 and 85
ECHCG Obsd. plant response rating (scale 0 to 100) (barnyardgrass (ECHCG); 200 g a.i./ha): 95 and 85

CS(=O)(=O)c1ccc(C(=O)C2C(=O)CCCC2=O)c([N+](=O)[O-])c1 [Mesotrione, reference compound]
Plant response rating, Obsd., AMATA (waterhemp (AMATA)): 96
Plant response rating, Obsd., ZEAMD (corn (ZEAMD)): 12
Plant response rating, Obsd., GLXMA (soybean (GLXMA)): 25
Plant response rating, Obsd., SETFA (giant foxtail (SETFA)): 0

COCc1cccc(C(O)c2nc(OC)cc(OC)n2)c1NS(=O)(=O)C(F)F (centres unmarked) [Pyrimisulfan]
CYPDI Obsd. ([4]; 20 g a.i./ha, scale 0-100): 98 and 100
HETLI Obsd. (ducksalad (HETLI); 20 g a.i./ha, scale 0-100): 100
ORYSA Obsd. ([5]; 20 g a.i./ha, scale 0-100): 25 and 20
ECHCG Obsd. (barnyardgrass (ECHCG); 20 g a.i./ha, scale 0-100): 75 and 80
